# Laboratory results as given in patent publication US20240190880A1 (THE REGENTS OF THE UNIVERSITY OF MICHIGAN, priority 2021, published 2024).
# Target: T1, ER (Homo sapiens, UniProt P03372)
# T1 construct: host or cells: T47D and MCF7 human breast cancer cells
# T1 sequence (P03372 1-595): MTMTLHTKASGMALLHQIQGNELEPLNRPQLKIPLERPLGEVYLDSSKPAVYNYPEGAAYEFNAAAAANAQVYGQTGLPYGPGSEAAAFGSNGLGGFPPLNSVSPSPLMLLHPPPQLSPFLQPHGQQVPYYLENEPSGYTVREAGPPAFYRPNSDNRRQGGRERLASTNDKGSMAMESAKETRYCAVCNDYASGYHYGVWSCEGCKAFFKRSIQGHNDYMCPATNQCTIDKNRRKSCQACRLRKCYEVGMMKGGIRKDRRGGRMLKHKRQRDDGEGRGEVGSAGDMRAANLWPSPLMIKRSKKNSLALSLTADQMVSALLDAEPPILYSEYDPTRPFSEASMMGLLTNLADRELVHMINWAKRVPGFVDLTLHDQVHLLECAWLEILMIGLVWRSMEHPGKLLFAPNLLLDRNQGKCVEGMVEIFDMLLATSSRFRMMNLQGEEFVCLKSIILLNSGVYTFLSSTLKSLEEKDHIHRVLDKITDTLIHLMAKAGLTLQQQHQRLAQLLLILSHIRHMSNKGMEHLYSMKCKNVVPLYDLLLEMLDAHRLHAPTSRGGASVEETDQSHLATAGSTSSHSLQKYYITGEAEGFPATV
# Experiment: ER degradation activity, in-cell western blot analysis in T47D cells
# Assay type: cell-based
# Details: compounds 16 hours, Table A does not say whether T47D or MCF7, read-out: Potency (DC50)
# Procedure, shortened: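 T47D cells cultured in DMEM with 10% FBS, treated with compounds (final 0.5% DMSO) for 16 h. ER level measured by in-cell western with anti-rabbit-680/anti-mouse-800 near-infrared detection. Relative ER percentage calculated against untreated and DMSO-treated wells set as 100%.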
row,DC50 [nM],Compound
1,> 100,"C[C@@H]1Cc2c([nH]c3ccccc23)[C@@H](c2cnc(N3CCC4(CC3)CC(CN3Cc5cc6c(cc5C3)C(=O)N([C@H]3CCC(=O)NC3=O)C6=O)C4)nc2)N1CC(F)(F)CO [E 512, 6-((7-(5-((1R,3R)-2-(2,2-difluoro-3-hydroxypropyl)-3-methyl-2,3,4,9-tetrahydro-1H-pyrido[3,4-b]indol-1-yl)pyrimidin-2-yl)-7-azaspiro[3.5]nonan-2-yl)methyl)-2-((S)-2,6-dioxopiperidin-3-yl)-6,7-dihydropyrrolo[3,4-f]isoindole-1,3(2H,5H)-dione]"
2,10 to 100,"C[C@@H]1Cc2c([nH]c3ccccc23)[C@@H](c2cnc(N3CC4(CCC(CN5Cc6cc7c(cc6C5)C(=O)N(C5CCC(=O)NC5=O)C7=O)CC4)C3)nc2)N1CC(F)(F)CO (stereo partly drawn) [E 513, 6-((2-(5-((1R,3R)-2-(2,2-difluoro-3-hydroxypropyl)-3-methyl-2,3,4,9-tetrahydro-1H-pyrido[3,4-b]indol-1-yl)pyrimidin-2-yl)-2-azaspiro[3.5]nonan-7-yl)methyl)-2-(2,6-dioxopiperidin-3-yl)-6,7-dihydropyrrolo[3,4-f]isoindole-1,3(2H,5H)-dione]"
3,10 to 100,"O=C1CCC(N2C(=O)c3cc4c(cc3C2=O)CN(CC2COC3(CCN(c5ccc([C@@H]6c7ccc(O)cc7CC[C@@H]6c6ccccc6)cc5)CC3)C2)C4)C(=O)N1 (stereo partly drawn) [E 515, 2-(2,6-dioxopiperidin-3-yl)-6-((8-(4-((1R,2S)-6-hydroxy-2-phenyl-1,2,3,4-tetrahydronaphthalen-1-yl)phenyl)-1-oxa-8-azaspiro[4.5]decan-3-yl)methyl)-6,7-dihydropyrrolo[3,4-f]isoindole-1,3(2H,5H)-dione]"

# Further lines, the compound ahead of its results:
row,Compound,DC50 [nM]
1,"Cn1cc(-c2ccc3c(c2)CC[C@H](c2ccccc2)[C@@H]3c2ccc(N3CCC4(CCN(C(=O)CN5Cc6cc7c(cc6C5)C(=O)N(C5CCC(=O)NC5=O)C7=O)CC4)CC3)cc2)cn1 (stereo partly drawn) [E 509, 2-(2,6-dioxopiperidin-3-yl)-6-(2-(9-(4-((1R,2S)-6-(1-methyl-1H-pyrazol-4-yl)-2-phenyl-1,2,3,4-tetrahydronaphthalen-1-yl)phenyl)-3,9-diazaspiro[5.5]undecan-3-yl)-2-oxoethyl)-6,7-dihydropyrrolo[3,4-f]isoindole-1,3(2H,5H)-dione]",> 100
2,"O=C1CCC(N2C(=O)c3cc4c(cc3C2=O)CN(CC(=O)N2CCC3(CC2)CCN(c2ccc([C@@H]5c6ccc(-c7cn[nH]c7)cc6CC[C@@H]5c5ccccc5)cc2)CC3)C4)C(=O)N1 (stereo partly drawn) [E 510, 2-(2,6-dioxopiperidin-3-yl)-6-(2-oxo-2-(9-(4-((1R,2S)-2-phenyl-6-(1H-pyrazol-4-yl)-1,2,3,4-tetrahydronaphthalen-1-yl)phenyl)-3,9-diazaspiro[5.5]undecan-3-yl)ethyl)-6,7-dihydropyrrolo[3,4-f]isoindole-1,3(2H,5H)-dione]",> 100
3,"COc1cc(N2CCC3(CCN(C(=O)CN4Cc5cc6c(cc5C4)C(=O)N(C4CCC(=O)NC4=O)C6=O)CC3)CC2)ccc1[C@@H]1c2[nH]c3ccccc3c2C[C@@H](C)N1CC(C)(C)F (stereo partly drawn) [E 514, 2-(2,6-dioxopiperidin-3-yl)-6-(2-(9-(4-((1R,3R)-2-(2-fluoro-2-methylpropyl)-3-methyl-2,3,4,9-tetrahydro-1H-pyrido[3,4-b]indol-1-yl)-3-methoxyphenyl)-3,9-diazaspiro[5.5]undecan-3-yl)-2-oxoethyl)-6,7-dihydropyrrolo[3,4-f]isoindole-1,3(2H,5H)-dione]",10 to 100
